PubChem BioAssay (NCI)
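Protocol summary: plate cells (96-well), add compound at 5 concentrations, incubate 48 h, interpolate endpoints linearly. TGI denotes the concentration required for complete inhibition of growth.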

Assays:
Test in all cases: inhibition of tumour cell growth, NCI panel, 48 h
[1] = test system: NCI-H460 lung
[2] = test system: EKVX NSCLC
[3] = test system: OVCAR-8 ovarian
[4] = test system: NCI-H226 lung
[5] = test system: HOP-62 NSCLC
[6] = test system: UO-31 renal
[7] = test system: HCT-15 colon
[8] = test system: COLO 205 colon
[9] = test system: UACC-62 melanoma
[10] = test system: RPMI-8226 leukemia
[11] = test system: U251 CNS
[12] = test system: HCT-116 colon
[13] = test system: HT29 colon
[14] = test system: K-562 leukemia
[15] = test system: OVCAR-5 ovarian
[16] = test system: MOLT-4 leukemia
[17] = test system: HOP-92 NSCLC
[18] = test system: OVCAR-4 ovarian
[19] = test system: SNB-19 CNS
[20] = test system: A498 renal

Row | Structure (SMILES) | TGI [1] [µM] | TGI [2] [µM] | TGI [3] [µM] | TGI [4] [µM] | TGI [5] [µM] | TGI [6] [µM] | TGI [7] [µM] | TGI [8] [µM] | TGI [9] [µM] | TGI [10] [µM] | TGI [11] [µM] | TGI [12] [µM] | TGI [13] [µM] | TGI [14] [µM] | TGI [15] [µM] | TGI [16] [µM] | TGI [17] [µM] | TGI [18] [µM] | TGI [19] [µM] | TGI [20] [µM]
1 | COc1nc(Cl)nc(N[C@H](C)c2c3ccccc3cc3ccccc23)n1 | 33.9 | 29.6 | 28.4 | 31.6 | 31.5 | 31.8 | 27 | 28.1 | 13.8 | 21.1 | 31.9 | 24.8 | 31.3 | 97.8 | 31.1 | 40.1 | 46.4 | 13.7 | 31.1 | 
2 | COC1/C=C/C(C)C(O)CC(O)/C=C/C(C)C(C(C)C(OC)C(C)CCC(=O)C(C)C(C/C=C/N(C)C=O)OC)OC(=O)/C=C/C=C(\C)CC(OC)CC2=CC(=O)O[C@@H](C(C)C(OC)C1)[C@H]2O (stereo partly drawn) | 0.162 | 0.266 | 0.475 |  | 0.0257 | 0.0648 | 0.0893 | 0.0885 | 0.019 | 0.124 | 0.102 | 0.00952 | 0.741 |  | 0.228 | 28.2 | 0.0106 | 1.54 | 0.155 | 0.0164
3 | N#Cc1ccccc1NC(=O)C(=O)C(C(=O)c1ccccc1F)C1OC(=O)c2ccccc21 (stereo not drawn) | > 100 | > 100 | > 100 | 64.4 | > 100 | > 100 | > 100 | > 100 | > 100 | 76.7 | 40.8 | > 100 | > 100 | > 100 | > 100 | > 100 | > 100 | > 100 | > 100 | > 100
4 | C[C@H]1S[C@@H](c2ccc(Cl)cc2Cl)N(NC(=O)c2ccncc2)C1=O | > 100 |  | > 100 | > 100 | > 100 | > 100 | > 100 | > 100 | > 100 | > 100 | > 100 | > 100 | > 100 | > 100 | > 100 | > 100 | > 100 | > 100 | > 100 | > 100
5 | C=CCC(O[Si](C)(C)C(C)(C)C)c1cc(O[Si](C)(C)C(C)(C)C)ccc1OC (stereo not drawn) | > 100 | > 100 | > 100 | > 100 | > 100 | > 100 | > 100 | > 100 | > 100 | > 100 | > 100 | > 100 | > 100 | > 100 | > 100 | > 100 | 86.6 | > 100 | > 100 | > 100
6 | CCOc1ccc2nc(NC(=O)C(=O)C(C(=O)c3ccccc3F)C3OC(=O)c4ccccc43)sc2c1 (stereo not drawn) | 39.5 | 45.3 | 32.8 | 27.5 | > 100 | 33.6 | 38.2 | 30.4 | 27.7 | 90 | 23.8 | 31.8 |  | > 100 |  | > 100 |  | 77.6 | 40.2 | > 100
7 | COc1ccccc1NC(=O)C(=O)C(C(=O)c1ccccc1F)C1OC(=O)c2ccccc21 (stereo not drawn) | 74.7 | > 100 | 47.2 | 43.8 | > 100 | 98.7 | 69.2 | 43.6 | 34.9 | 69.6 | 31.1 | 44.3 | 62.5 | > 100 | > 100 | > 100 | > 100 | > 100 | 64 | > 100
